Key:
Format in all cases: in vivo
[1] = tested on: soybean (Glycine max L., var. Pella 86, SOY); assay: Post-emerge greenhouse screening, crop safety (phytotoxicity rating); details: 14 days after application
Method in brief: (§1)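 Plants grown in sandy loam pots received acetone solutions of compound by moving-nozzle track sprayer, 15–1000 g ai/ha. In post-emergence runs the foliage was at the 2-3 leaf stage and spray contained 0.25% v/v non-ionic surfactant. Damage was assessed visually after 14 days (0-100).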

[2] = tested on: upland rice (Oryza sp., var.Tebonnet, RICE); assay: as above; details: 14 days after application
Method in brief: as §1

[3] = tested on: green foxtail (Setaria viridis, SETVI); assay: Pre-emerge greenhouse herbicide activity screening, phytotoxicity rating; details: 14 days after application
Method in brief: as §1

[4] = tested on: common ragweed (Ambrosia artemisiifolia L., AMBEL); assay: as above; details: 14 days after application
Method in brief: as §1

[5] = tested on: johnsongrass (Sorghum halepense, SORHA); assay: as above; details: 14 days after application
Method in brief: as §1

[6] = tested on: lambsquarters (Chenopodium album, CHEAL); assay: as above; details: 14 days after application
Method in brief: as §1

[7] = tested on: redroot pigweed (Amaranthus retroflexus, AMARE); assay: as above; details: 14 days after application
Method in brief: as §1

[8] = tested on: barnyardgrass (Echinochloa crus-galli, ECHCG); assay: as above; details: 14 days after application
Method in brief: as §1

[9] = tested on: sicklepod (Cassia obtusifolia, CASOB); assay: as above; details: 14 days after application
Method in brief: as §1

[10] = tested on: velvetleaf (Abutilon theophrasti, ABUTH); assay: as above; details: 14 days after application
Method in brief: as §1

[11] = tested on: ivyleaf morningglory (Ipomoea hederacea, IPOHE); assay: as above; details: 14 days after application
Method in brief: as §1

[12] = tested on: large crabgrass (Digitaria sanguinalis, DIGSA); assay: as above; details: 14 days after application
Method in brief: as §1

[13] = tested on: green foxtail (Setaria viridis, SETVI); assay: Post-emerge greenhouse herbicide activity screening, phytotoxicity rating
Method in brief: as §1

[14] = tested on: common ragweed (Ambrosia artemisiifolia L., AMBEL); assay: as above
Method in brief: as §1

[15] = tested on: johnsongrass (Sorghum halepense, SORHA); assay: as above; details: 14 days after application
Method in brief: as §1

[16] = tested on: lambsquarters (Chenopodium album, CHEAL); assay: as above
Method in brief: as §1

[17] = tested on: redroot pigweed (Amaranthus retroflexus, AMARE); assay: as above
Method in brief: as §1

[18] = tested on: barnyardgrass (Echinochloa crus-galli, ECHCG); assay: as above; details: 14 days after application
Method in brief: as §1

[19] = tested on: sicklepod (Cassia obtusifolia, CASOB); assay: as above
Method in brief: as §1

[20] = tested on: velvetleaf (Abutilon theophrasti, ABUTH); assay: as above; details: 14 days after application
Method in brief: as §1

[21] = tested on: ivyleaf morningglory (Ipomoea hederacea, IPOHE); assay: as above; details: 14 days after application
Method in brief: as §1

[22] = tested on: large crabgrass (Digitaria sanguinalis, DIGSA); assay: as above; details: 14 days after application
Method in brief: as §1

[23] = tested on: soybean (Glycine max L., var. Pella 86, SOY); assay: Pre-emerge greenhouse screening, crop safety (phytotoxicity rating); details: 14 days after application
Method in brief: as §1

[24] = tested on: field corn (Zea mays L., var. Dekalb 535, CORN); assay: as above; details: 14 days after application
Method in brief: as §1

[25] = tested on: upland rice (Oryza sp., var.Tebonnet, RICE); assay: as above; details: 14 days after application
Method in brief: as §1

[26] = tested on: field corn (Zea mays L., var. Dekalb 535, CORN); assay: Post-emerge greenhouse screening, crop safety / corn selectivity (phytotoxicity rating); details: 14 days after application
Method in brief: as §1

[27] = 125 g ai/ha, 14 days after application
[28] = 250 g ai/ha, 14 days after application

## Cn1c(C(F)(F)F)cc(=O)n(-c2cc(Oc3ccccc3)c(C#N)cc2F)c1=S [Compound 1-69]
[1]; 125 g ai/ha
  SOY crop damage, phytotoxicity rating (0-100 scale): 0
[1]; 250 g ai/ha
  SOY crop damage, phytotoxicity rating (0-100 scale): 50
[2]; 125 g ai/ha
  RICE crop damage, phytotoxicity rating (0-100 scale): 0
[2]; 250 g ai/ha
  RICE crop damage, phytotoxicity rating (0-100 scale): 0
[3]; 125 g ai/ha
  SETVI phytotoxicity rating (0-100 scale): 100
[3]; 250 g ai/ha
  SETVI phytotoxicity rating (0-100 scale): 100
[4]; 125 g ai/ha
  AMBEL phytotoxicity rating (0-100 scale): 100
[4]; 250 g ai/ha
  AMBEL phytotoxicity rating (0-100 scale): 100
[5]; 125 g ai/ha
  SORHA phytotoxicity rating (0-100 scale): 95
[5]; 250 g ai/ha
  SORHA phytotoxicity rating (0-100 scale): 95
[6]; 125 g ai/ha
  CHEAL phytotoxicity rating (0-100 scale): 100
[6]; 250 g ai/ha
  CHEAL phytotoxicity rating (0-100 scale): 100
[7]; 125 g ai/ha
  AMARE phytotoxicity rating (0-100 scale): 100
[7]; 250 g ai/ha
  AMARE phytotoxicity rating (0-100 scale): 100
[8]; 125 g ai/ha
  ECHCG phytotoxicity rating (0-100 scale): 90
[8]; 250 g ai/ha
  ECHCG phytotoxicity rating (0-100 scale): 95
[9]; 125 g ai/ha
  CASOB phytotoxicity rating (0-100 scale): 100
[9]; 250 g ai/ha
  CASOB phytotoxicity rating (0-100 scale): 99
[10]; 125 g ai/ha
  ABUTH phytotoxicity rating (0-100 scale): 100
[10]; 250 g ai/ha
  ABUTH phytotoxicity rating (0-100 scale): 100
[11]; 125 g ai/ha
  IPOHE phytotoxicity rating (0-100 scale): 100
[11]; 250 g ai/ha
  IPOHE phytotoxicity rating (0-100 scale): 100
[12]; 125 g ai/ha
  DIGSA phytotoxicity rating (0-100 scale): 99
[12]; 250 g ai/ha
  DIGSA phytotoxicity rating (0-100 scale): 100
[13]; 31.3 g ai/ha
  SETVI phytotoxicity rating (0-100 scale): 0
[13]; 62.5 g ai/ha
  SETVI phytotoxicity rating (0-100 scale): 50
[13]; [27]
  SETVI phytotoxicity rating (0-100 scale): 0
[13]; [28]
  SETVI phytotoxicity rating (0-100 scale): 30
[14]; 31.3 g ai/ha
  AMBEL phytotoxicity rating (0-100 scale): 70
[14]; 62.5 g ai/ha
  AMBEL phytotoxicity rating (0-100 scale): 70
[14]; [27]
  AMBEL phytotoxicity rating (0-100 scale): 30
[14]; [28]
  AMBEL phytotoxicity rating (0-100 scale): 35
[15]; 125 g ai/ha
  SORHA phytotoxicity rating (0-100 scale): 0
[15]; 250 g ai/ha
  SORHA phytotoxicity rating (0-100 scale): 0
[16]; 31.3 g ai/ha
  CHEAL phytotoxicity rating (0-100 scale): 80
[16]; 62.5 g ai/ha
  CHEAL phytotoxicity rating (0-100 scale): 80
[16]; [27]
  CHEAL phytotoxicity rating (0-100 scale): 100
[16]; [28]
  CHEAL phytotoxicity rating (0-100 scale): 100
[17]; 31.3 g ai/ha
  AMARE phytotoxicity rating (0-100 scale): 100
[17]; 62.5 g ai/ha
  AMARE phytotoxicity rating (0-100 scale): 100
[17]; [27]
  AMARE phytotoxicity rating (0-100 scale): 99
[17]; [28]
  AMARE phytotoxicity rating (0-100 scale): 100
[18]; 125 g ai/ha
  ECHCG phytotoxicity rating (0-100 scale): 0
[18]; 250 g ai/ha
  ECHCG phytotoxicity rating (0-100 scale): 25
[19]; 31.3 g ai/ha
  CASOB phytotoxicity rating (0-100 scale): 50
[19]; 62.5 g ai/ha
  CASOB phytotoxicity rating (0-100 scale): 65
[19]; [27]
  CASOB phytotoxicity rating (0-100 scale): 75
[19]; [28]
  CASOB phytotoxicity rating (0-100 scale): 70
[20]; 125 g ai/ha
  ABUTH phytotoxicity rating (0-100 scale): 100
[20]; 250 g ai/ha
  ABUTH phytotoxicity rating (0-100 scale): 100
[21]; 125 g ai/ha
  IPOHE phytotoxicity rating (0-100 scale): 100
[21]; 250 g ai/ha
  IPOHE phytotoxicity rating (0-100 scale): 100
[22]; 125 g ai/ha
  DIGSA phytotoxicity rating (0-100 scale): 0
[22]; 250 g ai/ha
  DIGSA phytotoxicity rating (0-100 scale): 30
[23]; 125 g ai/ha
  SOY crop damage, phytotoxicity rating (0-100 scale): 30
[23]; 250 g ai/ha
  SOY crop damage, phytotoxicity rating (0-100 scale): 50
[24]; 125 g ai/ha
  CORN crop damage, phytotoxicity rating (0-100 scale): 5
[24]; 250 g ai/ha
  CORN crop damage, phytotoxicity rating (0-100 scale): 10
[25]; 125 g ai/ha
  RICE crop damage, phytotoxicity rating (0-100 scale): 50
[25]; 250 g ai/ha
  RICE crop damage, phytotoxicity rating (0-100 scale): 60
[26]; 125 g ai/ha
  CORN crop damage, phytotoxicity rating (0-100 scale): 0
[26]; 250 g ai/ha
  CORN crop damage, phytotoxicity rating (0-100 scale): 5

Reference: patent US6613718B2, “Aryl ether derivatives and processes for their preparation and herbicidal and desiccant compositions containing them” (Ishihara Sangyo Kaisha, Ltd., priority 2001, dated 2003)
